Some results are limits rather than exact numbers.

For the test, the target named is T1, human mGlu2 (Homo sapiens, UniProt Q14416).
T1 construct: expressed in transfected cells; host or cells: HEK-293 stably co-expressing GIRK channels
T1 sequence (Q14416 19-872): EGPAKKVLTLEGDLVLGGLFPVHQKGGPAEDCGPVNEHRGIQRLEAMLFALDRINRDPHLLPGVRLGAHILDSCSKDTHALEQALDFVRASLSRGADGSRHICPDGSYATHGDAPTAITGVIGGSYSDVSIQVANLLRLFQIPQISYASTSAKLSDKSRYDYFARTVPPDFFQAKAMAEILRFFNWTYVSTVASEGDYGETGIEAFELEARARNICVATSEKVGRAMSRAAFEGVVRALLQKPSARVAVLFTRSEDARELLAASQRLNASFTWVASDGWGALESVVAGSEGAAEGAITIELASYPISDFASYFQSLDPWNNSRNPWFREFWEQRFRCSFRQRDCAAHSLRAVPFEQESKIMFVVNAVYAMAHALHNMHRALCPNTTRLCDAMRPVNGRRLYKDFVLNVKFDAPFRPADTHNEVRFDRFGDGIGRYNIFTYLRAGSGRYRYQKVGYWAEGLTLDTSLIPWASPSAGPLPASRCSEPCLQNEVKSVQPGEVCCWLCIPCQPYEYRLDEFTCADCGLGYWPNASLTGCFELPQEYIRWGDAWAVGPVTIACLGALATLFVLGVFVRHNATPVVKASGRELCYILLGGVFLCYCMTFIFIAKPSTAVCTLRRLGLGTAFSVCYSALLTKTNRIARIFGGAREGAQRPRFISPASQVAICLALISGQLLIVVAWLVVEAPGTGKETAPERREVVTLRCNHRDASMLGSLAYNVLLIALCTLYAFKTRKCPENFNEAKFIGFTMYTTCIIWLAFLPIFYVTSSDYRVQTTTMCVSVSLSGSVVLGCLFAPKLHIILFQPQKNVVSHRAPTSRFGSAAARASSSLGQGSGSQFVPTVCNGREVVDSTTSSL
Kind of test: mGlu GIRK cell-based thallium flux assay, human mGlu2. As to conditions: HEK-293 cells co-expressing human mGlu2 and GIRK, EC80 glutamate, single experiment. The method, then:
Human embryonic kidney (HEK-293) cell lines stably co-expressing human or rat mGlu2 and G protein-coupled inwardly rectifying potassium (GIRK) channels, or human mGlu3 and GIRK, were used for in vitro evaluation of compound activity in thallium flux assay using a fluorescent thallium indicator dye.
The day before the assay, GIRK cells co-expressing human mGlu3, human or rat mGlu2, as described above, were plated in black-walled, clear-bottomed, amine-coated 384-well plates at a density of 15,000 cells/[…]/well in the assay medium (glutamine-depleted basal DMEM supplemented with 10% dialyzed FBS, 20 mM HEPES, 1 mM sodium pyruvate). Cells were incubated at 37° C. in the presence of 5% CO2. The next day, assay buffer (Hanks balanced salt solution, 20 mM HEPES, 4.16 mM sodium bicarbonate, pH 7.2) was prepared to dilute compounds and Thallos AM fluorescent dye solution. The 2× Thallos dye solution (final concentration 0.34 μM to the cells) was prepared by mixing the dye stock (2.97 mM in DMSO) to 1:1 with 10% pluronic acid before adding to the assay buffer. Cells were washed with assay buffer using a microplate washer to remove the medium, resulting in 20 μL of buffer remaining in each well. […] During the cell dye loading incubation period, a 10-point concentration serial dilution of compound was created from a 10 mM DMSO compound stock by performing a 1:3 serial dilution in DMSO using the Bravo liquid handler. The 2× compound plate was generated by transferring 0.24 μL of the diluted compound in each well to a daughter plate using an Echo acoustic liquid handler. This is further diluted in 40 μL assay buffer, resulting in a range from […] to 1.5 nM final concentration in the assay. The agonist plate (5×) was prepared to include EC80 glutamate concentration (a concentration to elicit 80% of a maximally effective glutamate concentration) in thallium buffer (125 mM sodium bicarbonate, 1 mM magnesium sulfate, 1.8 mM calcium sulfate, 5 mM glucose, 10 mM HEPES, pH 7.2, 12.5 mM thallium sulfate).
After dye-loading, cell plates were washed with assay buffer to remove excess extracellular dye using a microplate washer, resulting in 20 μL of buffer remaining in each well. After a ten-minute equilibration period, cell, compound and agonist plates were loaded into a Hamamatsu μCell kinetic imaging plate reader equipped with liquid handler to monitor fluorescence changes at 480 nm excitation and 540 nm emission settings. Briefly, after collection of baseline fluorescence, 20 μL of compound was added and incubated for two minutes and twenty seconds. This is immediately followed by adding 10 μL of glutamate-thallium buffer to the wells containing compound. The fluorescent signal was monitored an additional 2.5 minutes after the glutamate addition. Multiple reference wells containing no compound received either no glutamate (for a baseline reference), EC80 glutamate, or ECmax glutamate (for normalization to maximum response). […] Each compound concentration series occurred one time in each plate, and replicates from two or three plates were used in each experimental run. Thallium solutions were handled and disposed of according to guidelines from the Vanderbilt University Chemical Safety department.
Data were normalized using a static ratio function (F/F0) by dividing every fluorescent measurement by the initial fluorescent value for the corresponding well. The increase in signal resulting from the glutamate/thallium addition of the second add was measured by determining the slope from 3 seconds to 13 seconds after the addition. The average of all baseline slopes (no compound, no glutamate) was determined and this value was subtracted from all other slope values. The average of all ECmax slopes was determined and this value was used to normalize the baseline-corrected slopes to a percent max value (% Emax).
For the compound `O=C1NCc2c1cc(-c1ccc(F)cc1F)cc2N1C[C@H]2C[C@@H]1CO2` (racemic) [Compound A21, rac-4-((1R,4R)-2-oxa-5-azabicyclo[2.2.1]heptan-5-yl)-6-(2,4-difluorophenyl)isoindolin-1-one], the IC50 – broadly, the point on the concentration scale where inhibition reaches its midpoint – was determined as 0.306 µM.

Take `O=C1NCc2c1cc(-c1ccc(F)cc1F)cc2-c1ccc(F)cc1F` [Compound 4, 4,6-bis(2,4-difluorophenyl)isoindolin-1-one]: the IC50 is 2.07 µM.

For the compound `O=C1NCc2c1cc(-c1ccc(F)cc1F)cc2-c1cnn(C(F)F)c1` [Compound 8, 4-(1-(difluoromethyl)-1H-pyrazol-4-yl)-6-(2,4-difluorophenyl)isoindolin-1-one], the IC50 was more than 10 µM.

`O=C1NCc2c1cc(-c1ccc(F)cc1F)cc2-c1ccnnc1` [Compound 12, 6-(2,4-difluorophenyl)-4-(pyridazin-4-yl)isoindolin-1-one] showed an IC50 of 1.12 µM.

`Cn1cc(-c2cc(-c3ccc(F)cc3F)cc3c2CNC3=O)cc1C#N` [Compound 14, 4-(6-(2,4-difluorophenyl)-1-oxoisoindolin-4-yl)-1-methyl-1H-pyrrole-2-carbonitrile] registered an IC50 of 3.08 µM.

With `O=C1NCc2c1cc(-c1ccc(F)cc1F)cc2-c1ccsc1` [Compound 15, 6-(2,4-difluorophenyl)-4-(thiophen-3-yl)isoindolin-1-one], the IC50 came out at 3.23 µM.

Compound `O=C1NCc2c1cc(-c1ccc(F)cc1F)cc2-c1cnn(C2CCCC2)c1` [Compound 16, 4-(1-cyclopentyl-1H-pyrazol-4-yl)-6-(2,4-difluorophenyl)isoindolin-1-one] had an IC50 of 3.17 µM.

`O=C1NCc2c1cc(-c1ccc(F)cc1F)cc2-c1cnn(C2CCC2)c1` [Compound 17, 4-(1-cyclobutyl-1H-pyrazol-4-yl)-6-(2,4-difluorophenyl)isoindolin-1-one] showed a half-maximal inhibitory concentration (IC50) of 2.56 µM.

Turning to `Cc1sc(C)c(-c2cc(-c3ccc(F)cc3F)cc3c2CNC3=O)c1C` [Compound 20, 6-(2,4-difluorophenyl)-4-(2,4,5-trimethylthiophen-3-yl)isoindolin-1-one], it took 5.26 µM to reach half-maximal inhibition (IC50).

Consider `O=C1NCc2c1cc(-c1ccc(F)cc1F)cc2-c1cnn(C2CCCCC2)c1` [Compound 21, 4-(1-cyclohexyl-1H-pyrazol-4-yl)-6-(2,4-difluorophenyl)isoindolin-1-one], for which the “Human mGlu2 GIRK IC50 (nM)” value is listed as “Inactive”.

On to `O=C1NCc2c1cc(-c1ccc(F)cc1F)cc2-c1ccc2cccnc2c1` [Compound 22, 6-(2,4-difluorophenyl)-4-(quinolin-7-yl)isoindolin-1-one], for which the IC50 is 2.38 µM.

The compound `O=C1NCc2c1cc(-c1ccc(F)cc1F)cc2-c1ccc2cnccc2c1` [Compound 23, 6-(2,4-difluorophenyl)-4-(isoquinolin-6-yl)isoindolin-1-one] registered an IC50 of 1.38 µM. Against the preceding compound, the IC50 is about 1.7-fold lower.

With `O=C1NCc2c1cc(-c1ccc(F)cc1F)cc2-c1ccc2ncccc2c1` [Compound 24, 6-(2,4-difluorophenyl)-4-(quinolin-6-yl)isoindolin-1-one], the IC50 was found to be 1.66 µM.

Compound `O=C1NCc2c1cc(-c1ccc(F)cc1F)cc2-c1cnc2ccccc2c1` [Compound 25, 6-(2,4-difluorophenyl)-4-(quinolin-3-yl)isoindolin-1-one] showed an IC50 of 3.31 µM. This IC50 is about 2-fold higher than that of the compound before.

Turning to `O=C1NCc2c1cc(-c1ccc(F)cc1F)cc2-c1ccc2ccncc2c1` [Compound 26, 6-(2,4-difluorophenyl)-4-(isoquinolin-7-yl)isoindolin-1-one], the IC50 stood at 2.69 µM. The IC50 values of the last two compounds are within 1.5-fold of each other.

In turn, `O=C1NCc2c1cc(-c1ccc(F)cc1F)cc2-c1ccc2nccnc2c1` [Compound 27, 6-(2,4-difluorophenyl)-4-(quinoxalin-6-yl)isoindolin-1-one] had an IC50 of 1.83 µM.

Turning to `O=C1NCc2c1cc(-c1ccc(F)cc1F)cc2-c1cc2ccccc2s1` [Compound 28, 4-(benzo[b]thiophen-2-yl)-6-(2,4-difluorophenyl)isoindolin-1-one], the “Human mGlu2 GIRK IC50 (nM)” value was “Inactive”.

Turning to `O=C1NCc2c1cc(-c1ccc(F)cc1F)cc2-c1ccco1` [Compound 29, 6-(2,4-difluorophenyl)-4-(furan-2-yl)isoindolin-1-one], the “Human mGlu2 GIRK IC50 (nM)” value is “Inactive”.

In turn, `O=C1NCc2c1cc(-c1ccc(F)cc1F)cc2-c1cnc(C(F)(F)F)nc1` [Compound 32, 6-(2,4-difluorophenyl)-4-(2-(trifluoromethyl)pyrimidin-5-yl)isoindolin-1-one] showed an IC50 of 3.13 µM.

For `N#Cc1ccc(-c2cc(-c3ccc(F)cc3F)cc3c2CNC3=O)cn1` [Compound 33, 5-(6-(2,4-difluorophenyl)-1-oxoisoindolin-4-yl)picolinonitrile], the IC50 stood at 1.54 µM.

`O=C1NCc2c1cc(-c1ccc(F)cc1F)cc2-c1cncnc1` [Compound 37, 6-(2,4-difluorophenyl)-4-(pyrimidin-5-yl)isoindolin-1-one] showed an IC50 of 0.95 µM.

In turn, `N#Cc1ccc(-c2cc3c(c(-c4cnsc4)c2)CNC3=O)c(F)c1` [Compound 43, 3-fluoro-4-(7-(isothiazol-4-yl)-3-oxoisoindolin-5-yl)benzonitrile] had an IC50 of 5.07 µM.

As to `COc1ccc(-c2cc3c(c(-c4cnsc4)c2)CNC3=O)c(F)c1` [Compound 44, 6-(2-fluoro-4-methoxyphenyl)-4-(isothiazol-4-yl)isoindolin-1-one], the IC50 is 3.56 µM.

The compound `O=C1NCc2c1cc(-c1c(F)cc(F)cc1F)cc2-c1cnsc1` [Compound 45, 4-(isothiazol-4-yl)-6-(2,4,6-trifluorophenyl)isoindolin-1-one] registered an IC50 of 2.07 µM.

`O=C1NCc2c1cc(-c1ccc(OC(F)F)cc1F)cc2-c1cnsc1` [Compound 46, 6-(4-(difluoromethoxy)-2-fluorophenyl)-4-(isothiazol-4-yl)isoindolin-1-one] displayed an IC50 of more than 10 µM.

Take `COc1cc(F)ccc1-c1cc2c(c(-c3cnsc3)c1)CNC2=O` [Compound 48, 6-(4-fluoro-2-methoxyphenyl)-4-(isothiazol-4-yl)isoindolin-1-one]: the IC50 is more than 10 µM.

With `COc1ccc(-c2cc3c(c(-c4cnsc4)c2)CNC3=O)c(F)c1F` [Compound 49, 6-(2,3-difluoro-4-methoxyphenyl)-4-(isothiazol-4-yl)isoindolin-1-one], the IC50 is 3.48 µM.

Consider `Cc1cc(-c2cc3c(c(-c4cnsc4)c2)CNC3=O)c(F)cc1F` [Compound 50, 6-(2,4-difluoro-5-methylphenyl)-4-(isothiazol-4-yl)isoindolin-1-one], for which the IC50 was more than 10 µM.

For the compound `Cc1cc(-c2cc3c(c(-c4cnsc4)c2)CNC3=O)c(F)cc1C#N` [Compound 51, 5-fluoro-4-(7-(isothiazol-4-yl)-3-oxoisoindolin-5-yl)-2-methylbenzonitrile], the “Human mGlu2 GIRK IC50 (nM)” value was “Inactive”.

Regarding `COc1cc(F)c(-c2cc3c(c(-c4cnsc4)c2)CNC3=O)cc1F` [Compound 52, 6-(2,5-difluoro-4-methoxyphenyl)-4-(isothiazol-4-yl)isoindolin-1-one], the “Human mGlu2 GIRK IC50 (nM)” value is on record as “Inactive”.

Consider `COc1cc(C#N)ccc1-c1cc2c(c(-c3cnsc3)c1)CNC2=O` [Compound 53, 4-(7-(isothiazol-4-yl)-3-oxoisoindolin-5-yl)-3-methoxybenzonitrile], for which the “Human mGlu2 GIRK IC50 (nM)” value is reported as “Inactive”.

In turn, `CCOc1ccc(-c2cc3c(c(-c4cnsc4)c2)CNC3=O)c(F)c1F` [Compound 54, 6-(4-ethoxy-2,3-difluorophenyl)-4-(isothiazol-4-yl)isoindolin-1-one] had an IC50 of more than 10 µM.

These data come from patent publication US20260226019A1, “NEGATIVE ALLOSTERIC MODULATORS OF METABOTROPIC GLUTAMATE RECEPTOR 2” (Vanderbilt University, priority 2023, published 2026).
